The text below walks through data of patent US20140011839A1, “COMPOSITIONS AND METHODS FOR TREATING AND INHIBITING VIRAL INFECTIONS” (priority 2012, published 2014).

The test system of one series is HPV-11. Briefly: HPV transient replication assay (E1/E2 expression vectors plus ori plasmid, qPCR of replicated DNA). In kind it is cell-based, human papillomavirus. The conditions noted are these: for SI90 (CC50/EC90): selectivity index. From the text: (§1) Specifically, in these tests, vectors for expression of an HPV genotype-matched set of viral El and E2 proteins (derived from virus strain HPV-11) along with an HPV ori-containing plasmid were cotransfected into HEK293 cells. […] Low molecular weight DNA was harvested 2 days post-transfection and digested with Dpnl and exonuclease Ill to remove unreplicated transfected plasmid DNA. The replicated DNA was then subjected to real time qPCR (quantitative polymerase chain reaction) analyses in triplicate. Two controls were performed. One was to omit the El expression vector to provide a background amount of undigested and unreplicated DNA. The other, positive control was treatment with the known inhibitor cidofovir, as mentioned above. A toxicity assay based upon cell viability at the time of harvest on day 2 was performed alongside each transient replication assay in 293 cells. The test compounds were added 4 hours post transfection for a total exposure of 44 hours. More than 1×10^5 cells were scored in a BioRad Automatic Cell Counter, with a determination of the total numbers, the numbers of trypan blue stained (dead) cells, and the % of dead cells.
On the technique in general: In qPCR the cycle at which signal appears reflects the starting amount.

The next series is described as follows: in vitro. The conditions noted are these: human.
Description: as §1

In the case of `Nc1ccn(C[C@@H](CO)OCP(=O)(O)O)c(=O)n1` [Cidofovir, cidofovir], the EC90 in the series on HPV-11 (Human papillomavirus, HPV-11 E1/E2 + ori plasmid in HEK293 cells, compounds tested at 1, 10, 100 μM, 44 hours exposure, read-out: EC90 (concentration that reduces viral replication by 90%)) was over 200 µM. Further, in the series with HPV-11, the “SI90 (CC50/EC90)” value is given as 1. The CC50 at 44 h in the series “in vitro” was over 200 µM.
For `CCN(CC)Cc1cc(Nc2ccnc3cc(Cl)ccc23)ccc1O` [Amodiaquine, amodiaquine], the “SI90 (CC50/EC90)” value with HPV-11 was over 2. The compound further registered a CC50 at 44 h in “in vitro” of over 100 µM.
